From US12433877B2, “Sustained release drug delivery systems and related methods” (Durect Corporation, priority 2021, dated 2025)
Values joined by “and” are separate entries in the source; they are usually repeats but may differ in a detail not shown here. Equal entries are not always repeated. One block for each compound: values may come before it.

Assays:
[1] = Example 9: 2,6-dimethylaniline standard in different color glassware, electrochemical detection; type: physicochemical; settings: for Observed Concentration of Standard: prepared at 3 ng/mL
Procedure: For analysis, an aliquot of formulation was diluted 250 times with an aqueous buffer/methanol/acetonitrile diluent. After solubilization of the sample, a small aliquot is transferred into an HPLC vial for analysis using an electrochemical detector.
A series of experiments was conducted examining the effects of amber and red colored glassware on the stability of the 2,6-dimethylaniniline reference standard, using electrochemical detection, at a concentration of 3 ng/mL in an aqueous buffer/methanol solution.
In Experiment 1, the 2,6-dimethylaniline was prepared at a concentration of 3 ng/mL in a clear, colorless glass 100 mL volumetric flask. Aliquots were transferred into clear HPLC glass vials, and assayed against external standards. The 3 injections of the 2,6-dimethylaniline were consistently near 3 ng/mL.
In Experiment 2, the 2,6-dimethylaniline solution at 3 ng/mL prepared in a clear, colorless glass 100 mL volumetric flask was transferred to amber HPLC vials.
An aliquot was transferred into a clear HPLC glass vial, and assayed against external standards. The sample injection had the same 2,6-dimethylaniline concentration value as that in Experiment 1.
In Experiment 4, the 2,6-dimethylaniline solution at 3 ng/mL prepared in the red colored glass 100 mL volumetric flask coated with RAY-SORB® was transferred to an amber HPLC vial.

[2] = test system: patients undergoing elective arthroscopic shoulder surgery; experiment: Example 1 / Study 1: pain intensity and opioid rescue after arthroscopic shoulder surgery; type: in vivo, human; settings: 0-72 hours after surgery; ITT
rats = experiment: Rat pre- and post-natal development study; type: in vivo; settings: rat; MRHD 660 mg
Procedure: (§1) There are no studies conducted with Formulation A in pregnant women. […] Based on animal data, advise pregnant women of the potential risks to a fetus. [see Data]
The high dose is approximately 0.6 times the daily MRHD of 660 mg/day on a BSA basis.

clinical [3] = settings: human, in vivo
Excerpt: Both bupivacaine and benzyl alcohol have been reported to be excreted in human milk.
Bupivacaine appears to cross the placenta by passive diffusion. The rate and degree of diffusion is governed by (1) the degree of plasma protein binding, (2) the degree of ionization, and (3) the degree of lipid solubility. Fetal/maternal ratios of local anesthetics appear to be inversely related to the degree of plasma protein binding, because only the free, unbound drug is available for placental transfer. Bupivacaine with a high protein binding capacity (95%) has a low fetal/maternal ratio (0.2 to 0.4). The extent of placental transfer is also determined by the degree of ionization and lipid solubility of the drug. Lipid soluble, non-ionized drugs such as bupivacaine readily enter the fetal blood from the maternal circulation.
The kidney is the main excretory organ for most local anesthetics and their metabolites. Urinary excretion is affected by urinary perfusion and factors affecting urinary pH. Only 6% of bupivacaine is excreted unchanged in the urine.

pregnant rabbits = experiment: Embryo-fetal development study, subcutaneous, rabbits; type: in vivo; settings: pregnant rabbits, subcutaneous; MRHD 660 mg
Procedure: as §1
Bupivacaine hydrochloride was administered subcutaneously to rats at doses of 4.4, 13.3, & 40 mg/kg and to rabbits at doses of 1.3, 5.8, & 22.2 mg/kg during the period of organogenesis (implantation to closure of the hard palate). The high doses are approximately 0.6 times the daily maximum recommended human dose (MRHD) of 660 mg/day on a mg/m^2 body surface area (BSA) basis.

rat micronucleus = experiment: In vivo rat micronucleus assay
Excerpt: (§2) Bupivacaine was negative in the in vitro bacterial reverse mutation assay (Ames assay), the in vitro chromosomal aberration assay (human peripheral blood lymphocytes, and the in vivo rat micronucleus assay.

clinical [4] = settings: human, in vivo; remark: listed apart in the source
Procedure: Additionally, alpha 1 acid glycoprotein (AAG) plasma concentrations were measured in these two groups for correlation with free bupivacaine concentrations.
Using non-compartmental methods the following PK parameters were calculated from the plasma concentrations of each compound: area under the plasma concentration vs. time curve until the last measured concentration (AUCt), area under the plasma concentration vs. time curve extrapolated until infinity (AUCinf), the maximum concentration (Cmax), the time of its occurrence (tmax) and the apparent terminal elimination half-life (t1/2). […] The average […] of bupivacaine was approximately 5.2%; free bupivacaine plasma concentrations generally paralleled those of total bupivacaine. There was a large interindividual variability of Cmax of both total and free bupivacaine. […] Note: Table 1.5 presents Geometric mean, ±68th percentile for Cmax rather than absolute min,max.

[5] = cited from earlier work
[6] = test system: bacterial reverse mutation; experiment: In vitro bacterial reverse mutation assay (Ames assay); type: cell-based
Excerpt: as §2

[7] = test system: human peripheral blood lymphocytes; experiment: In vitro chromosomal aberration assay; type: cell-based
Excerpt: as §2

[8] = Example 14: peroxide content of SAIB / benzyl alcohol versus bupivacaine N-oxide; type: physicochemical
Procedure: Placebo compositions were composed of 75% w/w sucrose acetate isobutyrate (SAIB), and 25% w/w benzyl alcohol. Bupivacaine N-oxide in the sustained release bupivacaine compositions can be formed by an oxidative reaction between bupivacaine and peroxides.
The peroxide content for several lots of sucrose acetate isobutyrate were determined by potentiometric titration involving iodometric titration. The bupivacaine N-oxide levels in samples of Formulation A were determined using HPLC with UV detection.
All of the benzyl alcohol compositions had peroxide values of less than […]. The peroxide value can be converted to peroxide content, expressed as hydrogen peroxide, by multiplying PV by 17. […] The maximum contribution to peroxide content from benzyl alcohol is 85 ppm divided by 3, or 28 ppm.

[9] = Example 11: metal content by ICP-MS; type: physicochemical
Procedure: Sucrose acetate isobutyrate was tested for metal content as follows. The sample was prepared with a 0.1 g weighed portion mixed with 2 mL nitric acid and 0.5 mL hydrochloric acid for 1 hour on a block digestor set at 110° C. After cooling, 0.5 mL of 30% hydrogen peroxide was added, and the digestion resumed for 30 minutes (the material appeared dissolved). After cooling, internal standard solution was added and dilution with purified water to 20 g produced a solution for ICP-MS analysis. The results are shown below:
Formulation A was compounded using steel compounding tanks. Silicone tubing was used to transfer Formulation A. Formulation A was filled into glass vials, which were then sealed with fluorocarbon-coated stoppers.
Formulation A was tested for metal content as follows. The sample was prepared with a 0.2 g weighed portion mixed with 2 mL nitric acid, 1 mL hydrochloric acid, and 1 mL hydrofluoric acid, then digested in a closed-vessel microwave system (the material appeared dissolved). After cooling, internal standard solution was added and dilution with purified water to 50 g produced a solution for ICP-MS analysis.

[10] = Example 16: in vitro cumulative release of bupivacaine (USP Apparatus II); type: physicochemical; settings: oven at 225° C. for 4 hours
Excerpt: To compare dissolution profiles, formulations having 12% w/w bupivacaine but differing ratios of sucrose acetate isobutyrate (SAIB)/solvent were made and tested as described in the below Methods and Materials. Table 16.1 is a summary of the compositions of the formulations tested.
To compare dissolution profiles, formulations having 12% w/w bupivacaine but differing ratios of sucrose acetate isobutyrate (SAIB)/solvent were made and tested as described below. Table 16.3 is a summary of the compositions of the formulations tested.
To compare dissolution profiles, a control formulation and a heat-stressed SAIB formulation were made and tested as described the below Methods and Materials. Both the control and heat-stressed SAIB formulations nominally consisted of 12% w/w bupivacaine, 22% w/w benzyl alcohol, and 66% w/w SAIB.
The bupivacaine formulations, other than the heat-stressed formulation, were prepared by dissolving appropriate amounts of bupivacaine in appropriate amounts of benzyl alcohol (BA), adding an appropriate amount of sucrose acetate isobutyrate (SAIB), and stirring not less than 45 minutes at about 35° C. For the heat-stressed SAIB formulation, the same process was followed except the SAIB was pre-heated in an oven at 225° C. for 4 hours before use. […]
Dissolution was measured using a USP Apparatus II. […]

Compound: Cc1cccc(C)c1N [2,6-Dimethlylaniline Standard]
Observed Concentration of Standard ([1]; Experiment 1, Clear volumetric flask, Clear HPLC vial): 3.0 ng/mL and 3.1 ng/mL
Observed Concentration of Standard ([1]; Experiment 2, Clear volumetric flask, Amber HPLC vial): 24.5 ng/mL and 28.4 ng/mL and 34.6 ng/mL and 38.1 ng/mL
Observed Concentration of Standard ([1]; Experiment 3, Red volumetric flask, Clear HPLC vial): 3.0 ng/mL
Observed Concentration of Standard ([1]; Experiment 4, Red volumetric flask, Amber HPLC vial): 14.9 ng/mL

Compound: Cc1cccc(C)c1N [2,6-dimethylaniline]
2,6-dimethylaniline concentration found ([1]; Experiment 1: clear flask, clear HPLC vials, 3 ng/mL prepared): ~3 ng/mL
2,6-dimethylaniline concentration relative to Experiment 1 ([1]; Experiment 3: red RAY-SORB flask, clear HPLC vial): same
2,6-dimethylaniline content relative to Experiments 1 and 3 ([1]; Experiment 4: red RAY-SORB flask, amber HPLC vial): approximately 5 times higher

Compound: CCCCN1CCCCC1C(=O)Nc1c(C)cccc1C (centres unmarked) [Bupivacaine, 1-butyl-N-(2,6-dimethylphenyl)-2-piperidinecarboxamide]
Total IV morphine equivalent dose of opioid rescue medication, median [2]: 8 mg
Dose with decreased pup survival (rats): 0.6 times the maximum recommended human dose
Cmax (clinical [3]): 2850 ng/mL
Dose with embryo-fetal lethality (pregnant rabbits): 0.6 times the maximum recommended human dose
Rat micronucleus assay result (rat micronucleus): negative
fraction unbound (clinical [4]): ~0.052
Excreted unchanged in the urine ([5]; human, in vivo): 6%
Protein binding capacity ([5]; plasma): 95%
Bacterial reverse mutation assay (Ames assay) result [6]: negative
Chromosomal aberration assay result [7]: negative

Peroxide content, expressed as hydrogen peroxide ([8]; PV multiplied by 17): < 8.5 ppm
Peroxide value (PV) ([8]; all lots): less than 0.5
Effective peroxide contribution to formation of bupivacaine N-oxide ([8]; divided by 3): < 2.8 ppm
Compound: OCc1ccccc1 [benzyl alcohol]

Gold ([9]; Detection Limit 0.02): 0.4 ppm
Tin ([9]; Detection Limit 0.04): 0.0 ppm
Iron ([9]; Detection Limit 1): 2 ppm
SAIB remaining after pre-heating [10]: 98%
Peroxide content in SAIB corresponding to 0.8% bupivacaine N-oxide ([8]; linear regression, FIG. 14): 232.5 ppm
Peroxide in SAIB corresponding to the 1.0% specification limit for bupivacaine N-oxide ([8]; linear regression, FIG. 14): 296.4 ppm
Compound: sucrose acetate isobutyrate [SAIB]
